Usually MIC stands for the lowest concentration found to suppress growth.

≈ marks a conversion by molar mass, not a printed value. Calls of active or inactive are those of the source. The rule behind the calls is not given here.

Data on 24 molecules can be found in ChEMBL document CHEMBL1151706, “Hetero-Diels-Alder reaction of 1,3-bis(trimethylsilyloxy)-1,3-butadienes with arylsulfonylcyanides. Synthesis and antimicrobial activity of 4-hydroxy-2-(arylsulfonyl)pyridines” (2008).

Type in all cases: functional
The test system of experiment [1] is Staphylococcus aureus. Nature of the experiment: Antibacterial activity against Staphylococcus aureus ATCC 6538 assessed as diameter of the inhibition zone at 1 uM/disk after 4 hrs by disk diffusion method. The note with it: for zone of inhibition at 1 µM: ATCC 6538, 4 h, read-out: IZ.
Experiment [2] has as its system Bacillus subtilis. The experiment can be described thus: Antibacterial activity against Bacillus subtilis ATCC 6051 assessed as diameter of the inhibition zone at 1 uM/disk after 4 hrs by disk diffusion method. The note with it: for zone of inhibition at 1 µM: ATCC 6051, 4 h, read-out: IZ.
Experiment [3] concerns Candida maltosa. The experiment can be described thus: Antifungal activity against Candida maltosa SBUG 700 assessed as diameter of the inhibition zone at 1 uM/disk by disk diffusion method. Background: Agar diffusion results depend on both activity and mobility in agar.
Experiment [4] relates to Staphylococcus aureus. The experiment can be described thus: Antibacterial activity against Staphylococcus aureus ATCC 6538 by dilution assay.
Experiment [5] relates to Escherichia coli. The experiment can be described thus: Antibacterial activity against Escherichia coli ATCC 11229 assessed as diameter of the inhibition zone at 1 uM/disk after 4 hrs by disk diffusion method.
The subject of experiment [6] is Bacillus subtilis. Nature of the experiment: Antibacterial activity against Bacillus subtilis ATCC 6051 by dilution assay.

On to `Cc1ccc(S(=O)(=O)c2cc(O)c(Sc3ccccc3)c(C)n2)cc1`, for which the result in experiment [1], in experiment [3] and in experiment [5] was inactive. Moreover, the zone of inhibition at 1 µM in experiment [2] was found to be 10 mm. For the same molecule, the MIC came to 670 µM (≈ 249 µg/mL) in experiment [4] and 340 µM (≈ 126 µg/mL) in experiment [6].

On to `CCOc1cc(O)cc(S(=O)(=O)c2ccc(C)cc2)n1`, for which the outcome in experiment [1], in experiment [2], in experiment [3] and in experiment [5] was inactive.

In the case of `CC(C)Oc1cc(O)cc(S(=O)(=O)c2ccccc2)n1`, the result in experiment [1], in experiment [2], in experiment [3] and in experiment [5] was inactive.

In the case of `Cc1ccc(S(=O)(=O)c2cc(O)c(Oc3cccc(C)c3)c(C)n2)cc1`, the outcome in experiment [1], in experiment [2], in experiment [3] and in experiment [5] was inactive.

For the molecule `COCCOc1cc(O)cc(S(=O)(=O)c2ccc(C)cc2)n1`, the outcome in experiment [1], in experiment [2], in experiment [3] and in experiment [5] was inactive.

NYSTATIN: in experiment [3], the inhibition zone (IZ) was 28 mm.

`COc1nc(S(=O)(=O)c2ccccc2)cc(O)c1Sc1ccccc1`: the outcome in experiment [1], in experiment [3] and in experiment [5] was inactive. In experiment [2], the zone of inhibition at 1 µM was 10 mm.

Consider `COCc1cc(O)cc(S(=O)(=O)c2ccc(C)cc2)n1`, for which the result in experiment [1], in experiment [2], in experiment [3] and in experiment [5] was inactive.

As to `Cc1ccc(Oc2c(O)cc(S(=O)(=O)c3ccc(C)cc3)nc2C)cc1`, the zone of inhibition at 1 µM turned out to be 8 mm in experiment [1] and 7 mm in experiment [2]. Moreover, the result in experiment [3] and in experiment [5] was inactive.

In the case of `Cc1ccc(S(=O)(=O)c2cc(O)cc(C)n2)cc1`, the result in experiment [1], in experiment [2], in experiment [3] and in experiment [5] was inactive.

For the molecule `CCOc1nc(S(=O)(=O)c2ccc(C)cc2)cc(O)c1F`, the outcome in experiment [1], in experiment [3] and in experiment [5] was inactive. Besides, the zone of inhibition at 1 µM in experiment [2] is 11 mm.

As for `CCOc1nc(S(=O)(=O)c2ccc(C)cc2)cc(O)c1Oc1cc(C)cc(C)c1`, the zone of inhibition at 1 µM in experiment [1] was 8 mm. In addition, the result in experiment [2], in experiment [3] and in experiment [5] was inactive.

On to `CCOc1nc(S(=O)(=O)c2ccccc2)cc(O)c1Oc1cc(C)cc(C)c1`, for which the outcome in experiment [1], in experiment [2], in experiment [3] and in experiment [5] was inactive.

Turning to `CCOc1nc(S(=O)(=O)c2ccccc2)cc(O)c1F`, the zone of inhibition at 1 µM was found to be 12 mm in experiment [1] and 11 mm in experiment [2]. Further, the result in experiment [3] and in experiment [5] was inactive. The MIC in experiment [4] came out at 3360 µM (≈ 999 µg/mL); in experiment [6], 1680 µM (≈ 499 µg/mL).

As to `COc1cc(O)cc(S(=O)(=O)c2ccc(C)cc2)n1`, the zone of inhibition at 1 µM in experiment [1] stood at 10 mm. Further, the result in experiment [2], in experiment [3] and in experiment [5] was inactive.

In the case of `CC1(C)S[C@@H]2[C@H](NC(=O)[C@H](N)c3ccccc3)C(=O)N2[C@H]1C(=O)O` [AMPICILLIN], the zone of inhibition at 1 µM turned out to be 27 mm in experiment [1]; 25 mm in experiment [2]; 19 mm in experiment [5] (ATCC 11229, 4 h, read-out: IZ). In addition, the MIC stood at 3 µM (≈ 1.05 µg/mL) in experiment [4] and 11 µM (≈ 3.84 µg/mL) in experiment [6].

Regarding `Cc1cccc(Sc2c(O)cc(S(=O)(=O)c3ccccc3)nc2C)c1`, the zone of inhibition at 1 µM in experiment [1] is 13 mm; in experiment [2], 10 mm. In addition, the result in experiment [3] and in experiment [5] was inactive. In addition, the MIC was 670 µM (≈ 249 µg/mL) in experiment [4] and 330 µM (≈ 123 µg/mL) in experiment [6].

As to `Cc1nc(S(=O)(=O)c2ccccc2)cc(O)c1Sc1ccccc1`, the zone of inhibition at 1 µM came out at 9 mm in experiment [1] and 10 mm in experiment [2]. For the same molecule, the result in experiment [3] and in experiment [5] was inactive.

Take `CCc1c(O)cc(S(=O)(=O)c2ccccc2)nc1OC`: the outcome in experiment [1], in experiment [2], in experiment [3] and in experiment [5] was inactive.

For the molecule `Cc1ccc(Sc2c(O)cc(S(=O)(=O)c3ccc(C)cc3)nc2C)cc1`, the zone of inhibition at 1 µM in experiment [1] was determined as 8 mm; in experiment [2] it was 10 mm. Further, the outcome in experiment [3] and in experiment [5] was inactive. For the same molecule, the MIC was found to be 320 µM (≈ 123 µg/mL) in experiment [4] and 160 µM (≈ 61.7 µg/mL) in experiment [6].

With `CCOc1cc(O)cc(S(=O)(=O)c2ccccc2)n1`, the outcome in experiment [1], in experiment [2], in experiment [3] and in experiment [5] was inactive.

For `CCOc1nc(S(=O)(=O)c2ccccc2)cc(O)c1Cl`, the results for the zone of inhibition at 1 µM in experiment [1] and in experiment [2] were 12 mm and 11 mm, respectively. Further, the result in experiment [3] and in experiment [5] was inactive. Further, the minimum inhibitory concentration (MIC) in experiment [4] and in experiment [6] was 1590 µM (≈ 499 µg/mL) throughout.

Regarding `CCOc1nc(S(=O)(=O)c2ccc(C)cc2)cc(O)c1Cl`, the zone of inhibition at 1 µM in experiment [1] was determined as 13 mm; in experiment [2] it was 10 mm; in experiment [3] (read-out: IZ), 9 mm. Further, the figures for the MIC in experiment [4] and in experiment [6] were 1530 µM (≈ 502 µg/mL) and 1520 µM (≈ 498 µg/mL), respectively. Also, the outcome in experiment [5] was inactive.

For `COc1cc(O)cc(S(=O)(=O)c2ccccc2)n1`, the result in experiment [1], in experiment [2], in experiment [3] and in experiment [5] was inactive.
